This note sets out measurements from patent publication US10093642B2, “Multitarget hedgehog pathway inhibitors and uses thereof” (UNIVERSITA' DEGLI STUDI DI SIENA, priority 2013, dated 2018).

The subject of one experiment is Wnt/Bcatenin. Description: Selectivity: unrelated signal transduction pathway Wnt/Bcatenin. It counts as cell-based.
In another experiment the test system is Jurkat T leukemia cells. In words: Effect on Hh-independent Jurkat cells. It counts as cell-based.
The target of a further experiment is T1, Gli1 (Homo sapiens, UniProt P08151).
T1 construct: expressed in transfected cells; host or cells: HEK293
T1 sequence (P08151 1-1106): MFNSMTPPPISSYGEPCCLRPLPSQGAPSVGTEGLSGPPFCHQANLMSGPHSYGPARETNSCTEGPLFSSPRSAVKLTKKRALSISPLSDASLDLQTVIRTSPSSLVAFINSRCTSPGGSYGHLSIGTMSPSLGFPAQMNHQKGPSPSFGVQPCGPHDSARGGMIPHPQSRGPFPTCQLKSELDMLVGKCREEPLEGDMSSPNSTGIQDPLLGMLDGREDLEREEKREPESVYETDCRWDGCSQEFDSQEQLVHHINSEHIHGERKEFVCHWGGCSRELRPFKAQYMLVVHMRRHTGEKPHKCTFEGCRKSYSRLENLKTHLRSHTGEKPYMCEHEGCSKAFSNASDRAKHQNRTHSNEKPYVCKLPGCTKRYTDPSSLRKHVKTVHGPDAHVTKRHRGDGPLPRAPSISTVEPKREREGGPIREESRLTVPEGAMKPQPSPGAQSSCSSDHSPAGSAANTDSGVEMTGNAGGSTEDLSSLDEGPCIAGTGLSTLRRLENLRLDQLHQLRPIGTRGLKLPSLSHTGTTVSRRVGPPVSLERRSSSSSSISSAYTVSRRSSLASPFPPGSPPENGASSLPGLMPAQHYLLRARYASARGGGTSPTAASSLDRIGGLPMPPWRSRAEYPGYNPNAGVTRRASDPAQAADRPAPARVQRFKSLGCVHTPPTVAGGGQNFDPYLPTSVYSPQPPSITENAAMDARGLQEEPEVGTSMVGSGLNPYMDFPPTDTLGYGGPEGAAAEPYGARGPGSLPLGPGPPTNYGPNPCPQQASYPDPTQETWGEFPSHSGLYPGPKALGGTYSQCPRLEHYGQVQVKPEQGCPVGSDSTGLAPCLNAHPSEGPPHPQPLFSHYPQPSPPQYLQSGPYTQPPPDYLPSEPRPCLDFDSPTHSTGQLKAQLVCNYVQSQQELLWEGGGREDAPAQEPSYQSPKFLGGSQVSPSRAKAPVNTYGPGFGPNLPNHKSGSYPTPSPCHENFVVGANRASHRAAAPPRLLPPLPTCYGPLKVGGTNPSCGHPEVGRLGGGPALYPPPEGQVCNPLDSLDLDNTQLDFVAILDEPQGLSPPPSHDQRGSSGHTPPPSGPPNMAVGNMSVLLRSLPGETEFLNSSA
In words: Gli1-mediated transcription luciferase assay in HEK293 cells transiently expressing Gli1. It counts as cell-based. The note with it: 24 h. As for the experimental part:
FIG. 7. Inhibition of Gli1-induced transcription in transfected HEK293 cells. HEK293 cells were transfected with 12×GliBS-Luc and pRL-TK Renilla (normalization control) plus control (empty vector) or Gli1 vector and treated with Glabrescione B or GANT61 (20 μM) or vehicle only (DMSO, dimethyl sulfoxide 0.5%—Gli1 bar in the graph) for 24 h and luciferase activity tested. Shown is the mean of three independent experiments. Error bars indicate SD.
Efficacy of Glabrescione B to directly target Gli1 protein, the final effector of Hh pathway, was also tested. […] GANT61, the only small-molecule described to inhibit Gli1 function (Lauth et al., PNAS 104: 8455-8460), was included as positive control.
To investigate the ability of Glabrescione B to block downstream Hh signaling by targeting Gli1 protein functions, the inventors performed a luciferase assay in HEK293 cells transiently expressing Gli1. The cells were seeded in 24-multiwell plates and the day after transfected with Gli1 expression vector together with the reporter plasmids 12×GliBS-Luc and pRL-TK Renilla reniformis (Kogerman P et al, 1999; Everett L et al, 1999). […] After 24 h of treatment cells were lysed and analyzed by using the Dual Luciferase kit according to manufacturer's instructions (Dual-Luciferase® Reporter assay system; Promega, cat. # E1980). […]

Experiment [1] deals with cerebellar granule progenitor cells (GCPs). In words: BrdU incorporation in Shh-treated cerebellar granule cell progenitors. It counts as cell-based, mouse. The note with it: Shh 3 μg/ml, 48 h. The method, then:
FIG. 10. Cerebellar granule progenitor cells (GCPs) were treated with Shh (Recombinant mouse Sonic Hedgehog, amino-terminal peptide, 3 μg/ml) and with different concentrations of Glabrescione B, as indicated, for 48 h. Inhibition of cell proliferation was measured as percentage of BrdU incorporation in comparison to DMSO (0.5%, vehicle) treated sample.
A biological assay was performed in cerebellar neural progenitors cells obtained from 4-days-old mice, when they are actively proliferating under Sonic Hedgehog (Shh) stimulus. As expected, treatment of these cells with Shh increased the proliferation rate, as evaluated by BrdU-incorporation assay. […] To further evaluate the antiproliferative effect of Glabrescione B, human MB cell lines D283 were treated with Glabrescione B at different concentrations. […] The biomolecule was active, as shown by the growth rate inhibition (70-95%).
Another experiment to assess whether Glabrescione B also regulates Hh pathway in a physiological context was carried out in cerebellar granule cells precursors (GCPs) isolated from 4-days-old mice according to established protocols (Wechsler-Reya and Scott, 1999). Briefly, cerebella were removed aseptically, cut into small pieces, and incubated at room temperature for 15 min in digestion buffer [Dulbecco's PBS (Invitrogen, Gaithersburg, Md.) with 0.1% trypsin, 0.2% EDTA, and 100 μg/ml DNase]. […]
(In general: Dividing cells build labelled thymidine or BrdU into new DNA.)

The nature of experiment [2]: NMR monitoring of direct interaction with Zn2+. Format: binding.

pIC50: −log10 of the molar value.

As a reminder, the inhibition is the change of the read-out against control, counted positive when it falls. Read a high inhibition as a response far below the control. For orientation: pIC50 means the IC50 on a negative log10 scale, so that one unit is a factor of ten. Lower therefore signals a large IC50. `COc1cc(OC)c2c(=O)c(-c3ccc(OCC=C(C)C)c(OCC=C(C)C)c3)coc2c1` [Glabrescione B, 3-(3′,4′-bis(3-methylbut-2-enyloxy)phenyl)-5,7-dimethoxy-4H-chromen-4-one] showed an inhibition at 30 µM with Wnt/Bcatenin of 0%. In the experiment on Jurkat T leukemia cells, the “effect on Jurkat cells” value is on record as “no effect”. At Gli1 (12×GliBS-Luc reporter), the pIC50 is around 4.82. The “Gli1-induced transcription” value at Gli1 (GANT61 20 μM as positive control) was “capable of interfering with Gli1-induced transcription in a dose-dependent manner”. The “Shh-induced proliferation (BrdU incorporation)” value in experiment [1] is “antagonized this effect”. For the same compound, the “binding to Zn2+ (NMR)” value in experiment [2] is on record as “not capable of binding to the metal ions”.
